Columns and labels:
HeLa-MaTu-ADR cells = test: Proliferation assay HeLa-MaTu-ADR (Method 3, crystal violet); type: cell-based; settings: Homo sapiens, 96 h, 4 days incubation, read-out: Inhibition of HeLa-MaTu-ADR cell proliferation IC50
Description: (§1) Cultivated tumour cells (HeLa, human cervical tumour cells, ATCC CCL-2; NCI-H460, human non-small cell lung carcinoma cells, ATCC HTB-177; A2780, human ovarian carcinoma cells, ECACC #93112519; DU 145, hormone-independent human prostate carcinoma cells, ATCC HTB-81; HeLa-MaTu-ADR, multidrug-resistant human cervical carcinoma cells, EPO-GmbH Berlin; Caco-2, human colorectal carcinoma cells, ATCC HTB-37; B16F10, mouse melanoma cells, ATCC CRL-6475) were plated at a density of 5,000 cells/well (DU145, HeLa-MaTu-ADR), 3,000 cells/well (NCI-H460, HeLa), 2,500 cells/well (A2780), 1,500 cells/well (Caco-2), or 1,000 cells/well (B16F10) in a 96-well multititer plate in 200 μL of their respective growth medium supplemented 10% fetal calf serum. After 24 hours, the cells of one plate (zero-point plate) were stained with crystal violet (see below), while the medium of the other plates was replaced by fresh culture medium (200 μl), to which the test substances were added in various concentrations (0 μM, as well as in the range of 0.001-10 μM; the final concentration of the solvent dimethyl sulfoxide was 0.5%). The cells were incubated for 4 days in the presence of test substances. Cell proliferation was determined by staining the cells with crystal violet: the cells were fixed by adding 20 μl/measuring point of an 11% glutaric aldehyde solution for 15 minutes at room temperature. After three washing cycles of the fixed cells with water, the plates were dried at room temperature. The cells were stained by adding 100 μl/measuring point of a 0.1% crystal violet solution (pH 3.0). After three washing cycles of the stained cells with water, the plates were dried at room temperature. The dye was dissolved by adding 100 μl/measuring point of a 10% acetic acid solution. The extinction was determined by photometry at a wavelength of 595 nm. The change of cell number, in percent, was calculated by normalization of the measured values to the extinction values of the zero-point plate (=0%) and the extinction of the untreated (0 μm) cells (=100%). The IC50 values (inhibitory concentration at 50% of maximal effect) were determined by means of a 4 parameter fit.

DU145 cells = test: Proliferation assay DU145 (Method 3, crystal violet); type: cell-based; settings: Homo sapiens, DU-145, 96 h; DU145, 4 days incubation; read-out: Inhibition of DU145 cell proliferation IC50
Description: as §1, with “The IC50 values (inhibitory concentration at 50% of maximal effect) were determined by means of a 4 parameter fit.” left out

CDK9/CycT1 = biological target: T1, CDK9/CycT1 (Homo sapiens, UniProt P50750); test: CDK9/CycT1 high ATP kinase assay (Method 1b, TR-FRET); type: biochemical; settings: 2 mM ATP; for IC50: Method 1b; for Selectivity high ATP CDK9 over high ATP CDK2: IC50 (high ATP CDK2)/IC50 (high ATP CDK9): Methods 1b and 2b
T1 construct: Recombinant full-length His-tagged human CDK9 and CycT1; His; purchased Invitrogen PV4131; host or cells: insect cells
T1 sequence (P50750 whole entry): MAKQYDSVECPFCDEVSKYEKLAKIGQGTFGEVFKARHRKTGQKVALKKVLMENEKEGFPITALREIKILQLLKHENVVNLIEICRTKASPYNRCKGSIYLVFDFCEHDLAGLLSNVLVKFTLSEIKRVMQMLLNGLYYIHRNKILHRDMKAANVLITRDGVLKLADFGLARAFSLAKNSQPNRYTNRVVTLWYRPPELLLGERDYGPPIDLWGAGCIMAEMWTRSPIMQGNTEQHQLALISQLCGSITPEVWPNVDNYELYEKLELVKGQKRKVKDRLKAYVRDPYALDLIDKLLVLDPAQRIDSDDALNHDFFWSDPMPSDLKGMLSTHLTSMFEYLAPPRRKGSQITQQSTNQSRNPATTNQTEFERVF
T1 sequence (O60563 whole entry partner): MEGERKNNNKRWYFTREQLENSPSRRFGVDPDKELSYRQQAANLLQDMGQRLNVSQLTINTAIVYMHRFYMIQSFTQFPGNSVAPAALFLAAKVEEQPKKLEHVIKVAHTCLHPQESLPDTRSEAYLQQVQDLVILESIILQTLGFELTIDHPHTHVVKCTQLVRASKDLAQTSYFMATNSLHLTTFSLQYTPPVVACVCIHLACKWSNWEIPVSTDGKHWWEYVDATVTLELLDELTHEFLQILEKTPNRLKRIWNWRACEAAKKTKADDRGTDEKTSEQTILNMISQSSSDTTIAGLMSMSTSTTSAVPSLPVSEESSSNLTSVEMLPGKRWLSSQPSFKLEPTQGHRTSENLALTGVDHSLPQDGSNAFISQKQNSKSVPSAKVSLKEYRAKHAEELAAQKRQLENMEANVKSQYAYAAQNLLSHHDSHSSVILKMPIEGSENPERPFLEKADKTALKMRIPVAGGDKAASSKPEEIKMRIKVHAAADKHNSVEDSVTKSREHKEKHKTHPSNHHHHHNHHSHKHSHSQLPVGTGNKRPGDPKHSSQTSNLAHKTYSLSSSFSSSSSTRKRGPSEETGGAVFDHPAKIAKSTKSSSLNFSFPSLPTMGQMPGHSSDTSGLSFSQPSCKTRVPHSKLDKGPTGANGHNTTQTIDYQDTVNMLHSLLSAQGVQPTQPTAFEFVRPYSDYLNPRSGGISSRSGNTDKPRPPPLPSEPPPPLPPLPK
Description: 1b. CDK9/CycT1 High ATP Kinase Assay
CDK9/CycT1-inhibitory activity of compounds of the present invention at a high ATP concentration after preincubation of enzyme and test compounds was quantified employing the CDK9/CycT1 TR-FRET assay as described in the following paragraphs.
Recombinant full-length His-tagged human CDK9 and CycT1, expressed in insect cells and purified by Ni-NTA affinity chromatography, were purchase from Invitrogen (Cat. No PV4131). As substrate for the kinase reaction biotinylated peptide biotin-Ttds-YISPLKSPYKISEG (C-terminus in amid form) was used which can be purchased e.g. form the company JERINI peptide technologies (Berlin, Germany). For the assay 50 nl of a 100 fold concentrated solution of the test compound in DMSO was pipetted into a black low volume 384 well microtiter plate (Greiner Bio-One, Frickenhausen, Germany), 2 μl of a solution of CDK9/CycT1 in aqueous assay buffer [50 mM Tris/HCl pH 8.0, 10 mM MgCl2, 1.0 mM dithiothreitol, 0.1 mM sodium ortho-vanadate, 0.01% (v/v) Nonidet-P40 (Sigma)] were added and the mixture was incubated for 15 min at 22° C. to allow pre-binding of the test compounds to the enzyme before the start of the kinase reaction. Then the kinase reaction was started by the addition of 3 μl of a solution of adenosine-tri-phosphate (ATP, 3.3 mM=> final conc. in the 5 μl assay volume is 2 mM) and substrate (1.67 μM=> final conc. in the 5 μl assay volume is 1 μM) in assay buffer and the resulting mixture was incubated for a reaction time of 25 min at 22° C. The concentration of CDK9/CycT1 was adjusted depending of the activity of the enzyme lot and was chosen appropriate to have the assay in the linear range, typical concentrations were in the range of 0.5 μg/mL. The reaction was stopped by the addition of 5 μl of a solution of TR-FRET detection reagents (0.2 μM streptavidine-XL665 [Cisbio Bioassays, Codolet, France] and 1 nM anti-RB(pSer807/pSer811)-antibody from BD Pharmingen [#558389] and 1.2 nM LANCE EU-W1024 labeled anti-mouse IgG antibody [Perkin-Elmer, product no. AD0077]) in an aqueous EDTA-solution (100 mM EDTA, 0.2% (w/v) bovine serum albumin in 100 mM HEPES/NaOH pH 7.0).
The resulting mixture was incubated 1 h at 22° C. to allow the formation of complex between the phosphorylated biotinylated peptide and the detection reagents. Subsequently the amount of phosphorylated substrate was evaluated by measurement of the resonance energy transfer from the Euchelate to the streptavidine-XL. Therefore, the fluorescence emissions at 620 nm and 665 nm after excitation at 350 nm was measured in a HTRF reader, e.g. a Rubystar (BMG Labtechnologies, Offenburg, Germany) or a Viewlux (Perkin-Elmer). The ratio of the emissions at 665 nm and at […] was taken as the measure for the amount of phosphorylated substrate. The data were normalised (enzyme reaction without inhibitor=0% inhibition, all other assay components but no enzyme=100% inhibition).

B16F10 cells = test: Proliferation assay B16F10 (Method 3, crystal violet); type: cell-based; settings: Mus musculus, B16-F10, 96 h; B16F10, 4 days incubation; read-out: Inhibition of B16F10 cell proliferation IC50
Description: as §1

HeLa cells = test: Proliferation assay HeLa (Method 3, crystal violet); type: cell-based; settings: Homo sapiens, 96 h, 4 days incubation, read-out: Inhibition of HeLa cell proliferation IC50
Description: as §1

SMILES	IC50 (HeLa-MaTu-ADR cells) [nM]	IC50 (DU145 cells) [nM]	IC50 (CDK9/CycT1) [nM]	Selectivity high ATP CDK9 over high ATP CDK2: IC50 (high ATP CDK2)/IC50 (high ATP CDK9) (CDK9/CycT1)	IC50 (B16F10 cells) [nM]	IC50 (HeLa cells) [nM]
CS(=O)(=O)Cc1cccc(Nc2ncc(F)c(-c3ccc(F)c4ccoc34)n2)c1 [Example 1, 5-Fluoro-4-(4-fluoro-1-benzofuran-7-yl)-N-{3-[(methylsulfonyl)methyl]-phenyl}pyrimidin-2-amine]	290	360	9	147	390	270
CCS(=O)(=O)Cc1cccc(Nc2ncc(F)c(-c3ccc(F)c4ccoc34)n2)c1 [Example 2, N-{3-[(Ethylsulfonyl)methyl]phenyl}-5-fluoro-4-(4-fluoro-1-benzofuran-7-yl)pyrimidin-2-amine]	100	–	9	102	100	335
CS(=O)(=O)Cc1cc(F)cc(Nc2ncc(F)c(-c3ccc(F)c4ccoc34)n2)c1 [Example 3]	239	298	2	–	245	100
Cc1cc(CS(C)(=O)=O)cc(Nc2ncc(F)c(-c3ccc(F)c4ccoc34)n2)c1 [Example 4, 5-Fluoro-4-(4-fluoro-1-benzofuran-7-yl)-N-{3-methyl-5-[(methylsulfonyl)methyl]-phenyl}pyrimidin-2-amine]	243	237	1	8560	242	100

Reference: patent publication US9902716B2, “Fluorinated benzofuranyl-pyrimidine derivatives containing a sulfone group” (Bayer Pharma Aktiengesellschaft, priority 2014, dated 2018)
